Species: Rattus norvegicus
Assay: Open TG-GATES - Regimen: Daily Repeat
Assay type: toxicity, organism-based, Sprague-Dawley
Parameters: regimen Daily Repeat, gender Male, age 6 weeks
Details: in vivo, po, route gavage; for APTT / Bas / Eos / Fbg / Hb / Ht / Lym / MCH / MCHC / MCV / Mono / Neu / PT / Plat / RBC / Ret / WBC: tissue Blood; for KIDNEY_L / KIDNEY_R / KIDNEY_TOTAL: tissue Kidney; for LIVER: tissue Liver; for A/G / ALP / ALT / AST / BUN / CRE / Ca / Cl / DBIL / GLC / IP / K / LDH / Na / PL / RALB / TBIL / TC / TG / TP / gamma-GTP: tissue Plasma
[1] = 0 mg/kg, 72 h, dose level Control, time 3 day
[2] = 0 mg/kg, […], dose level Control, time 7 day
[3] = 0 mg/kg, […], dose level Control, time 14 day
[4] = 0 mg/kg, […], dose level Control, time 28 day
[5] = 30 mg/kg, 72 h, dose level Low, time 3 day
[6] = 30 mg/kg, […], dose level Low, time 7 day
[7] = 30 mg/kg, […], dose level Low, time 14 day
[8] = 30 mg/kg, […], dose level Low, time 28 day

CCOC(=O)C(C)(C)Oc1ccc(Cl)cc1 [CLOFIBRATE]
TERMINAL_BW [1]: 239.8 g
APTT [1]: 20.7 s
Bas [1]: 0%
Eos [1]: 1%
Fbg [1]: 221 mg/dL
Hb [1]: 13.8 g/dL
Ht [1]: 39.5%
Lym [1]: 75%
MCH [1]: 21.3 pg
MCHC [1]: 34.9%
MCV [1]: 61.1 fL
Mono [1]: 3.2%
Neu [1]: 20.2%
PT [1]: 12.2 s
Plat [1]: 124.2 x10_4/uL
RBC [1]: 646.2 x10_4/ul
Ret [1]: 5.4%
WBC [1]: 98 x10_2/uL
KIDNEY_L [1]: 1 g
KIDNEY_R [1]: 1.1 g
KIDNEY_TOTAL [1]: 2.1 g
LIVER [1]: 12 g
A/G [1]: 1.6
ALP [1]: 881.8 IU/L
ALT [1]: 37.4 IU/L
AST [1]: 68 IU/L
BUN [1]: 14 mg/dL
CRE [1]: 0.4 mg/dL
Ca [1]: 11.1 mg/dL
Cl [1]: 102 meq/L
DBIL [1]: 0.088 mg/dL
GLC [1]: 194.2 mg/dL
IP [1]: 7 mg/dL
K [1]: 4.1 meq/L
LDH [1]: 230.6 IU/L
Na [1]: 140.6 meq/L
PL [1]: 162.4 mg/dL
RALB [1]: 3.5 g/dL
TBIL [1]: 0.1 mg/dL
TC [1]: 78 mg/dL
TG [1]: 137.2 mg/dL
TP [1]: 5.6 g/dL
gamma-GTP [1]: 1.2 IU/L
TERMINAL_BW [2]: 268.6 g
TERMINAL_BW [3]: 332 g
TERMINAL_BW [4]: 392.8 g
APTT [2]: 20.7 s
Bas [2]: 0%
Eos [2]: 0.8%
Fbg [2]: 238 mg/dL
Hb [2]: 14.4 g/dL
Ht [2]: 41%
Lym [2]: 81.6%
MCH [2]: 21.4 pg
MCHC [2]: 35.2%
MCV [2]: 60.8 fL
Mono [2]: 2.6%
Neu [2]: 14.6%
PT [2]: 11.8 s
Plat [2]: 118.2 x10_4/uL
RBC [2]: 675.8 x10_4/ul
Ret [2]: 5.1%
WBC [2]: 104.1 x10_2/uL
APTT [3]: 19 s
Bas [3]: 0%
Eos [3]: 0.8%
Fbg [3]: 227.2 mg/dL
Hb [3]: 14.3 g/dL
Ht [3]: 41.2%
Lym [3]: 80.4%
MCH [3]: 20.3 pg
MCHC [3]: 34.6%
MCV [3]: 58.5 fL
Mono [3]: 3%
Neu [3]: 15%
PT [3]: 12.3 s
Plat [3]: 118.5 x10_4/uL
RBC [3]: 704.8 x10_4/ul
Ret [3]: 4.4%
WBC [3]: 137.8 x10_2/uL
APTT [4]: 21.1 s
Bas [4]: 0%
Eos [4]: 1%
Fbg [4]: 219.4 mg/dL
Hb [4]: 15.2 g/dL
Ht [4]: 43.2%
Lym [4]: 81.4%
MCH [4]: 19.3 pg
MCHC [4]: 35.3%
MCV [4]: 54.9 fL
Mono [4]: 2.6%
Neu [4]: 14.4%
PT [4]: 12 s
Plat [4]: 119.8 x10_4/uL
RBC [4]: 786.6 x10_4/ul
Ret [4]: 2.1%
WBC [4]: 108.2 x10_2/uL
KIDNEY_L [2]: 1.1 g
KIDNEY_R [2]: 1.1 g
KIDNEY_TOTAL [2]: 2.2 g
KIDNEY_L [3]: 1.3 g
KIDNEY_R [3]: 1.3 g
KIDNEY_TOTAL [3]: 2.6 g
KIDNEY_L [4]: 1.4 g
KIDNEY_R [4]: 1.4 g
KIDNEY_TOTAL [4]: 2.8 g
LIVER [2]: 12.5 g
LIVER [3]: 14.9 g
LIVER [4]: 16 g
A/G [2]: 1.6
ALP [2]: 994.8 IU/L
ALT [2]: 33.8 IU/L
AST [2]: 64.6 IU/L
BUN [2]: 16.6 mg/dL
CRE [2]: 0.4 mg/dL
Ca [2]: 10.5 mg/dL
Cl [2]: 102.2 meq/L
DBIL [2]: 0.098 mg/dL
GLC [2]: 213.2 mg/dL
IP [2]: 7.2 mg/dL
K [2]: 3.8 meq/L
LDH [2]: 192.2 IU/L
Na [2]: 138.8 meq/L
PL [2]: 144.8 mg/dL
RALB [2]: 3.6 g/dL
TBIL [2]: 0.2 mg/dL
TC [2]: 70.2 mg/dL
TG [2]: 122 mg/dL
TP [2]: 5.8 g/dL
gamma-GTP [2]: 0.6 IU/L
A/G [3]: 1.3
ALP [3]: 852.2 IU/L
ALT [3]: 37.4 IU/L
AST [3]: 62 IU/L
BUN [3]: 16.2 mg/dL
CRE [3]: 0.4 mg/dL
Ca [3]: 10.6 mg/dL
Cl [3]: 101 meq/L
DBIL [3]: 0.082 mg/dL
GLC [3]: 209.4 mg/dL
IP [3]: 7 mg/dL
K [3]: 3.8 meq/L
LDH [3]: 155 IU/L
Na [3]: 140.4 meq/L
PL [3]: 148 mg/dL
RALB [3]: 3.4 g/dL
TBIL [3]: 0.1 mg/dL
TC [3]: 74.2 mg/dL
TG [3]: 118.4 mg/dL
TP [3]: 5.9 g/dL
gamma-GTP [3]: 0.8 IU/L
A/G [4]: 1.4
ALP [4]: 622.2 IU/L
ALT [4]: 31.2 IU/L
AST [4]: 57.4 IU/L
BUN [4]: 15.2 mg/dL
CRE [4]: 0.4 mg/dL
Ca [4]: 10.4 mg/dL
Cl [4]: 102.6 meq/L
DBIL [4]: 0.08 mg/dL
GLC [4]: 207.2 mg/dL
IP [4]: 5.9 mg/dL
K [4]: 3.8 meq/L
LDH [4]: 154.6 IU/L
Na [4]: 140.8 meq/L
PL [4]: 145.6 mg/dL
RALB [4]: 3.5 g/dL
TBIL [4]: 0.1 mg/dL
TC [4]: 66.8 mg/dL
TG [4]: 124.4 mg/dL
TP [4]: 6.1 g/dL
gamma-GTP [4]: 0.8 IU/L
TERMINAL_BW [5]: 242 g
APTT [5]: 20.9 s
Bas [5]: 0%
Eos [5]: 1%
Fbg [5]: 226 mg/dL
Hb [5]: 13.3 g/dL
Ht [5]: 38%
Lym [5]: 80.8%
MCH [5]: 21.4 pg
MCHC [5]: 35%
MCV [5]: 61.1 fL
Mono [5]: 3.2%
Neu [5]: 15%
PT [5]: 12.5 s
Plat [5]: 131.1 x10_4/uL
RBC [5]: 622.4 x10_4/ul
Ret [5]: 5%
WBC [5]: 108.6 x10_2/uL
KIDNEY_L [5]: 1 g
KIDNEY_R [5]: 1 g
KIDNEY_TOTAL [5]: 2.1 g
LIVER [5]: 12 g
A/G [5]: 1.6
ALP [5]: 1135 IU/L
ALT [5]: 42.4 IU/L
AST [5]: 72.2 IU/L
BUN [5]: 14.8 mg/dL
CRE [5]: 0.4 mg/dL
Ca [5]: 10.9 mg/dL
Cl [5]: 102 meq/L
DBIL [5]: 0.098 mg/dL
GLC [5]: 200.8 mg/dL
IP [5]: 6.3 mg/dL
K [5]: 4 meq/L
LDH [5]: 265.2 IU/L
Na [5]: 140.2 meq/L
PL [5]: 141 mg/dL
RALB [5]: 3.4 g/dL
TBIL [5]: 0.1 mg/dL
TC [5]: 67.6 mg/dL
TG [5]: 112.2 mg/dL
TP [5]: 5.6 g/dL
gamma-GTP [5]: 0.6 IU/L
TERMINAL_BW [6]: 265.8 g
TERMINAL_BW [7]: 333.8 g
TERMINAL_BW [8]: 411.4 g
APTT [6]: 20.2 s
Bas [6]: 0%
Eos [6]: 0.8%
Fbg [6]: 223.4 mg/dL
Hb [6]: 14.1 g/dL
Ht [6]: 39.7%
Lym [6]: 82%
MCH [6]: 21.9 pg
MCHC [6]: 35.5%
MCV [6]: 61.6 fL
Mono [6]: 2.6%
Neu [6]: 14.2%
PT [6]: 12 s
Plat [6]: 124.1 x10_4/uL
RBC [6]: 643.8 x10_4/ul
Ret [6]: 4.4%
WBC [6]: 88.1 x10_2/uL
APTT [7]: 20.1 s
Bas [7]: 0%
Eos [7]: 1%
Fbg [7]: 219.4 mg/dL
Hb [7]: 13.9 g/dL
Ht [7]: 40.8%
Lym [7]: 78.4%
MCH [7]: 20 pg
MCHC [7]: 34%
MCV [7]: 58.9 fL
Mono [7]: 3.2%
Neu [7]: 17.2%
PT [7]: 12.3 s
Plat [7]: 131 x10_4/uL
RBC [7]: 694.6 x10_4/ul
Ret [7]: 4.8%
WBC [7]: 146.7 x10_2/uL
APTT [8]: 20.8 s
Bas [8]: 0%
Eos [8]: 1%
Fbg [8]: 222 mg/dL
Hb [8]: 14.8 g/dL
Ht [8]: 42.7%
Lym [8]: 81.8%
MCH [8]: 18.5 pg
MCHC [8]: 34.7%
MCV [8]: 53.4 fL
Mono [8]: 2.6%
Neu [8]: 14.2%
PT [8]: 12.4 s
Plat [8]: 119.1 x10_4/uL
RBC [8]: 800 x10_4/ul
Ret [8]: 2.2%
WBC [8]: 140.9 x10_2/uL
KIDNEY_L [6]: 1.1 g
KIDNEY_R [6]: 1.1 g
KIDNEY_TOTAL [6]: 2.2 g
KIDNEY_L [7]: 1.3 g
KIDNEY_R [7]: 1.3 g
KIDNEY_TOTAL [7]: 2.6 g
KIDNEY_L [8]: 1.5 g
KIDNEY_R [8]: 1.5 g
KIDNEY_TOTAL [8]: 3 g
LIVER [6]: 12.4 g
LIVER [7]: 16 g
LIVER [8]: 16.9 g
A/G [6]: 1.6
ALP [6]: 883.2 IU/L
ALT [6]: 35.8 IU/L
AST [6]: 72 IU/L
BUN [6]: 16 mg/dL
CRE [6]: 0.4 mg/dL
Ca [6]: 10.4 mg/dL
Cl [6]: 103.2 meq/L
DBIL [6]: 0.07 mg/dL
GLC [6]: 213 mg/dL
IP [6]: 6.8 mg/dL
K [6]: 3.5 meq/L
LDH [6]: 245 IU/L
Na [6]: 141.4 meq/L
PL [6]: 127 mg/dL
RALB [6]: 3.6 g/dL
TBIL [6]: 0.1 mg/dL
TC [6]: 60 mg/dL
TG [6]: 96 mg/dL
TP [6]: 5.8 g/dL
gamma-GTP [6]: 0.8 IU/L
A/G [7]: 1.4
ALP [7]: 845.6 IU/L
ALT [7]: 32.4 IU/L
AST [7]: 56.8 IU/L
BUN [7]: 16.4 mg/dL
CRE [7]: 0.4 mg/dL
Ca [7]: 10.4 mg/dL
Cl [7]: 101.4 meq/L
DBIL [7]: 0.088 mg/dL
GLC [7]: 229.8 mg/dL
IP [7]: 7 mg/dL
K [7]: 4 meq/L
LDH [7]: 183.4 IU/L
Na [7]: 140.2 meq/L
PL [7]: 145.6 mg/dL
RALB [7]: 3.4 g/dL
TBIL [7]: 0.1 mg/dL
TC [7]: 64.8 mg/dL
TG [7]: 135 mg/dL
TP [7]: 5.8 g/dL
gamma-GTP [7]: 0.8 IU/L
A/G [8]: 1.4
ALP [8]: 741.4 IU/L
ALT [8]: 41 IU/L
AST [8]: 68.4 IU/L
BUN [8]: 14.6 mg/dL
CRE [8]: 0.4 mg/dL
Ca [8]: 10.3 mg/dL
Cl [8]: 102.2 meq/L
DBIL [8]: 0.084 mg/dL
GLC [8]: 207.8 mg/dL
IP [8]: 6.1 mg/dL
K [8]: 3.9 meq/L
LDH [8]: 165.8 IU/L
Na [8]: 140.4 meq/L
PL [8]: 134 mg/dL
RALB [8]: 3.4 g/dL
TBIL [8]: 0.1 mg/dL
TC [8]: 61.6 mg/dL
TG [8]: 121.6 mg/dL
TP [8]: 5.9 g/dL
gamma-GTP [8]: 0.8 IU/L

From ChEMBL document CHEMBL3885861, “Open TG-GATES”
